Measured values as given in US11590134B2, “Aminopyrimidine amide autophagy inhibitors and methods of use thereof” (Deciphera Pharmaceuticals, LLC, priority 2019, dated 2023).

Tests used:
[1] = test system: ULK kinase substrate ATG13 (phospho-Serine 318 ATG13) in MiaPaCa-2 cells; experiment: pATG13 ELISA in mutant KRas MiaPaCa-2 cells in combination with trametinib; assay type: cell-based; details: MiaPaCa-2 human pancreatic cancer cells, with 250 nM trametinib, overnight
Procedure: (§1) MiaPaCa-2 human pancreatic cancer cells (10000 cells/well) were added to a 384-well tissue-culture treated plate in 50 μL of pre-warmed DMEM medium supplemented with 10% characterized fetal bovine serum (Invitrogen, Carlsbad, Calif.), 100 units/mL penicillin G, 100 μg/mL streptomycin, and 2.5% Horse Serum and allowed to grow overnight at 37° C., 5% CO2, and 95% humidity. The following day, 10 μL of media containing trametinib or DMSO as a control was added to wells. The final concentration of trametinib in wells was 250 nM. A dose response of a test compound (0.6 μL per well) was added. DMSO (0.6 μL) was added to control wells. The plate was briefly shaken to mix wells and then incubated at 37° C. overnight. The next day, the media was aspirated and cells were washed with Dulbecco's Phosphate Buffered Saline (Gibco). Cells were lysed using MPER lysis buffer (Pierce, Rockford, Ill.) containing Halt Phosphatase and Protease Inhibitors (Pierce, Rockford, Ill.) and Phosphatase inhibitor cocktail 2 (Sigma, St. Louis, Mo.) at 4° C. for 10 minutes with shaking.
(§2) Cellular levels of phospho-Serine 318 ATG13 (pATG13) were measured via an ELISA method. Total ATG13 Antibody (Cell Signaling Cat #13273) was used to coat the wells. The plate was incubated at 4° C. overnight and washed with ELISA wash buffer (Biolegend Cat #421601). The wells were then blocked with assay diluent (Biolegend Cat #421203) for 1 hour at room temperature. Plate wells were washed with ELISA wash buffer. Cell lysate was added to wells and incubated at room temperature for 2 hours. Plate wells were washed with ELISA wash buffer. Biotinylated pS318-ATG13 antibody (Rockland Immunochemicals Cat #600-401-C49) was diluted in assay diluent and added to each well and incubated at room temperature for 1 hour. Plate wells were washed with ELISA wash buffer. Streptavidin linked to horseradish peroxidase (Thermo Fisher Cat #21140) was diluted in assay diluent and added to each well and incubated at room temperature for 1 hour. Plate wells were washed with ELISA wash buffer. High sensitivity TMB substrate (Biolegend Cat #421101) was added to each well and incubated at room temperature for 20 minutes. The reaction was stopped with 2N Sulfuric Acid. The plate was analyzed at on a plate reader measuring absorbance at 450 nm and 540 nm (background). Signal was calculated by first subtracting the background absorbance at 540 nm from the absorbance at 450 nm for each well. Next, the background corrected absorbance at 450 nm from blank wells was subtracted from test wells. Data was compared to control wells to determine % ATG13 phosphorylation. GraphPad Prism was used to calculate IC50 values.

ULK1 kinase [2] = target: T1, ULK1 kinase (Homo sapiens, UniProt O75385); experiment: Biochemical assay for ULK1.2 (coupled pyruvate kinase/lactate dehydrogenase assay); details: 19 nM ULK1 (residues 1-314), myelin basic protein substrate, 1 mM ATP
T1 construct: purchased Eurofins 14-959
T1 sequence (O75385 with tags, fused parts or gaps): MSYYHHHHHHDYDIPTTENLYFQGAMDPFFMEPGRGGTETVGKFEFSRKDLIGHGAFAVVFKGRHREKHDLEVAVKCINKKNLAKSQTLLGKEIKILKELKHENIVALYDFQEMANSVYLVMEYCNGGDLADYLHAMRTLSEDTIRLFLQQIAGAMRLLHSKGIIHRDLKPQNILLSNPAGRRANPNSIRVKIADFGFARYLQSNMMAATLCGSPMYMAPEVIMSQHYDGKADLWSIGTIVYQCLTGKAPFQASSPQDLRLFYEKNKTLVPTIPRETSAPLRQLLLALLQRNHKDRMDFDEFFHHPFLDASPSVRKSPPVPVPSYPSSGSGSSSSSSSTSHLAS
Procedure: (§3) Activity of ULK1 kinase was determined spectroscopically using a coupled pyruvate kinase/lactate dehydrogenase assay that continuously monitors the ATP hydrolysis-dependent oxidation of NADH (e.g., Schindler et al. Science (2000) 289: 1938-1942). Assays were conducted in 384-well plates (100 uL final volume) using 19 nM ULK1 (Eurofins CAT #14-959), 0.25 mg/mL myelin basic protein, 1.5 units pyruvate kinase, 2.1 units lactate dehydrogenase, 1 mM phosphoenol pyruvate, 0.28 mM NADH and 1 mM ATP in assay buffer (100 mM Tris, pH 7.5, 15 mM MgCl2, 0.5 mM DTT, 0.1% octyl-glucoside, 0.002% (w/v) BSA, and 0.002% Triton X-100). Inhibition of ULK1 was measured by adding serial diluted test compound (final assay concentration of 1% DMSO). A decrease in absorption at 340 nm was monitored continuously for 6 hours at 30° C. on a multi-mode microplate reader (BioTek). The reaction rate was calculated using the 2-3 h time frame. The reaction rate at each concentration of compound was converted to percent inhibition using controls (i.e. reaction with no test compound and reaction with a known inhibitor) and IC50 values were calculated by fitting a four-parameter sigmoidal curve to the data using Prism (GraphPad software).

ULK2 kinase = target: T2, ULK2 kinase (Homo sapiens, UniProt Q8IYT8); experiment: Biochemical assay for ULK2 (coupled pyruvate kinase/lactate dehydrogenase assay); details: 9.7 nM ULK2 (residues 1-306), myelin basic protein substrate, 1 mM ATP; read-out: ULK2.2
T2 construct: purchased Eurofins 14-772
T2 sequence (Q8IYT8 with tags, fused parts or gaps): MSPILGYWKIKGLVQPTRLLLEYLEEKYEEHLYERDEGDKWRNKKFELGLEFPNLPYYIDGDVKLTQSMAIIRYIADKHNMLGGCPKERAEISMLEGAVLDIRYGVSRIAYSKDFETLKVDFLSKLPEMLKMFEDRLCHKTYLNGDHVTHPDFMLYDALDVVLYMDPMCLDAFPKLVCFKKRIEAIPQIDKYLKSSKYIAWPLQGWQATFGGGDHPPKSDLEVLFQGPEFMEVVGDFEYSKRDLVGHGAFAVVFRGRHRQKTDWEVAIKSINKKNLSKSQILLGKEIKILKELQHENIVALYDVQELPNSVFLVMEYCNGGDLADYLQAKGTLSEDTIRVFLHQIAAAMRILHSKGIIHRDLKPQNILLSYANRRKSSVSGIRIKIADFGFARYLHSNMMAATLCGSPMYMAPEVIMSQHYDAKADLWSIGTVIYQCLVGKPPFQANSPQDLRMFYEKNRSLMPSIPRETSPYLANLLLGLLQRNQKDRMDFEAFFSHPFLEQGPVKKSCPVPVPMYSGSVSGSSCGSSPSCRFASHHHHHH
Procedure: as §3, with “of ULK2” for “of ULK1”, “using 9.7” for “using 19”, “nM ULK2” for “nM ULK1”, “CAT #14-772),” for “CAT #14-959),”

[3] = test system: ULK kinase substrate ATG13 (phospho-Serine 318 ATG13) in A549 cells; experiment: pATG13 ELISA in mutant KRas A549 cells in combination with trametinib; assay type: cell-based; details: A549 (KRAS mutant) human lung cancer cells, with 250 nM trametinib, overnight
Procedure: as §1, with “A549 (KRAS mutant)” for “MiaPaCa-2”, “lung” for “pancreatic”, “(6,000” for “(10000”, “G, and” for “G,”, “streptomycin” for “streptomycin, and 2.5% Horse Serum”
as §2

ULK1 kinase [4] = target: T3, ULK1 kinase (Homo sapiens, UniProt O75385, E37A/K38A); experiment: Biochemical assay for ULK1.3 (coupled pyruvate kinase/lactate dehydrogenase assay); details: 0.1 nM ULK1 (residues 1-283), peptide substrate, 1 mM ATP
T3 construct: (residues 1-283; ID NO: 2); purchased Beryllium
T3 sequence (O75385 1-283 E37A/K38A): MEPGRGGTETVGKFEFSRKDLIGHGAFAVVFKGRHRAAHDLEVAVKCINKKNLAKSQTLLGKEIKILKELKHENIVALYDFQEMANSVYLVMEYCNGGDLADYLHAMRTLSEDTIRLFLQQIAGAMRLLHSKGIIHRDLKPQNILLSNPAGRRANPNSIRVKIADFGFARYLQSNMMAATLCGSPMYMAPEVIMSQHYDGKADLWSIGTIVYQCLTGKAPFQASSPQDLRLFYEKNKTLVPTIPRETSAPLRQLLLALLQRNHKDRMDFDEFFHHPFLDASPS
Procedure: Activity of ULK1 kinase was determined spectroscopically using a coupled pyruvate kinase/lactate dehydrogenase assay that continuously monitors the ATP hydrolysis-dependent oxidation of NADH (e.g., Schindler et al. Science (2000) 289: 1938-1942). Assays were conducted in 384-well plates (100 uL final volume) using 0.1 nM ULK1 (from Beryllium), 0.075 mM peptide substrate (YANWLAASIYLDGKKK (SEQ ID NO: 5)), 1.5 units pyruvate kinase, 2.1 units lactate dehydrogenase, 1 mM phosphoenol pyruvate, 0.28 mM NADH and 1 mM ATP in assay buffer (100 mM Tris, pH 7.5, 15 mM MgCl2, 0.5 mM DTT, 0.004% (w/v) BSA, and 0.004% Triton X-100). Inhibition of ULK1 was measured by adding serial diluted test compound (final assay concentration of 1% DMSO). A decrease in absorption at 340 nm was monitored continuously for 6 hours at 30° C. on a multi-mode microplate reader (BioTek). The reaction rate was calculated using the 2-3 h time frame. The reaction rate at each concentration of compound was converted to percent inhibition using controls (i.e. reaction with no test compound and reaction with a known inhibitor) and IC50 values were calculated using software routines in Prism (GraphPad software).

LRRK2 kinase = target: T4, LRRK2 kinase (Homo sapiens, UniProt Q5S007); experiment: Biochemical assay for LRRK2 (coupled pyruvate kinase/lactate dehydrogenase assay); details: 26.4 nM LRRK2 (residues 970-2528), peptide substrate, 1 mM ATP
T4 construct: (residues 970-2528; ID NO; 4); purchased Thermo Fisher
T4 sequence (Q5S007 with tags, fused parts or gaps): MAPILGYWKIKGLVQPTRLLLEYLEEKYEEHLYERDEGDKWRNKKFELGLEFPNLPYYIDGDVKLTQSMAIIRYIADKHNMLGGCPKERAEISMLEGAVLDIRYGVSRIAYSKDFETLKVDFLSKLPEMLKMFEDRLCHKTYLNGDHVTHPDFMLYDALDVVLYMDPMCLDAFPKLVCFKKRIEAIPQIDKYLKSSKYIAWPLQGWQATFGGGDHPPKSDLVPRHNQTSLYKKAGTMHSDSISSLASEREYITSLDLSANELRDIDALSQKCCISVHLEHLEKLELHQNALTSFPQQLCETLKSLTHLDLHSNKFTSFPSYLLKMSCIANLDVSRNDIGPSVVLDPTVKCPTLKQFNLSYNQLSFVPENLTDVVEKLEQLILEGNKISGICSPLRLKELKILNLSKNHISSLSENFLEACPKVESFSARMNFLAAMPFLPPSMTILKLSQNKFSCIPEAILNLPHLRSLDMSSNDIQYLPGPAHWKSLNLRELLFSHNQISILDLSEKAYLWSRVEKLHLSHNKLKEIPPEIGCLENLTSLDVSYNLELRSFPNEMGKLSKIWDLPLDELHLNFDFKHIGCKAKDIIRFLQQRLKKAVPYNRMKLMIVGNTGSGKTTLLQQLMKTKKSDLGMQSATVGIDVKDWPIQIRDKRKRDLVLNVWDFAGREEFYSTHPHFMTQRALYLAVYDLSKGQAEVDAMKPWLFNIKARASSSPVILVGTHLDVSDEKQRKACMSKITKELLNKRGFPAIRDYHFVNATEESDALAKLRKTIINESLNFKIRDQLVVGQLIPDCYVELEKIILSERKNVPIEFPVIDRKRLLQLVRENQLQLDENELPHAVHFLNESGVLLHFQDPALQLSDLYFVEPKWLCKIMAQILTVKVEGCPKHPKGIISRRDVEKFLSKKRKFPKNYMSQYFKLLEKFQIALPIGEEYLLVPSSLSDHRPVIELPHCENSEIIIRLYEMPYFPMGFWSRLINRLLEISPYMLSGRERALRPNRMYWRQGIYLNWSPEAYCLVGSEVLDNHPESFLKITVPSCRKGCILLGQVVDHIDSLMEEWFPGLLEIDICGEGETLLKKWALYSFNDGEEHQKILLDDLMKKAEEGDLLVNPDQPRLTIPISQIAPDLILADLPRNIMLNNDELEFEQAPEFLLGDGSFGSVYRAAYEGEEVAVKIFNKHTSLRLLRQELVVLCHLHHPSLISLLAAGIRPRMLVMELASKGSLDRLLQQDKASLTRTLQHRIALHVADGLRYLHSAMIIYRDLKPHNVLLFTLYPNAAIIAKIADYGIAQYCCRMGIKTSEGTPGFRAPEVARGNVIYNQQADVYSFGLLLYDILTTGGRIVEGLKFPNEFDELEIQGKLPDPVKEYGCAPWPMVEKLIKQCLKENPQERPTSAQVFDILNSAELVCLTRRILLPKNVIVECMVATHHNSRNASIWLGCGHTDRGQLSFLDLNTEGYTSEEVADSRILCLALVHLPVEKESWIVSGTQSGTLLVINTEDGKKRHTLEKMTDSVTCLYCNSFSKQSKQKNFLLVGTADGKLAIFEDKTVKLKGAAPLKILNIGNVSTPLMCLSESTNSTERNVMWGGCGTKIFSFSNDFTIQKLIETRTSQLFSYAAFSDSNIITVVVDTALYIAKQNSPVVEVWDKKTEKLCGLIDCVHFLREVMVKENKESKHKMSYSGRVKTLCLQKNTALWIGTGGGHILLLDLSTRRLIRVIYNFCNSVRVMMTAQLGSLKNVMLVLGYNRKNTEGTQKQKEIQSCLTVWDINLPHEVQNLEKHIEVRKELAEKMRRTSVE
Procedure: Activity of LRRK2 kinase was determined spectroscopically using a coupled pyruvate kinase/lactate dehydrogenase assay that continuously monitors the ATP hydrolysis-dependent oxidation of NADH (e.g., Schindler et al. Science (2000) 289: 1938-1942). Assays were conducted in 384-well plates (100 uL final volume) using 26.4 nM LRRK2 (Thermo Fisher), 0.1 mM peptide substrate (RLGRDKYKTLRQIRQ (SEQ ID NO: 6)), 1.5 units pyruvate kinase, 2.1 units lactate dehydrogenase, 1 mM phosphoenol pyruvate, 0.28 mM NADH and 1 mM ATP in assay buffer (100 mM Tris, pH 7.5, 15 mM MgCl2, 0.5 mM DTT, 0.004% (w/v) BSA, and 0.004% Triton X-100). Inhibition of LRRK2 was measured by adding serial diluted test compound (final assay concentration of 1% DMSO). A decrease in absorption at 340 nm was monitored continuously for 6 hours at 30° C. on a multi-mode microplate reader (BioTek). The reaction rate was calculated using the 2-3 h time frame. The reaction rate at each concentration of compound was converted to percent inhibition using controls (i.e. reaction with no test compound and reaction with a known inhibitor) and IC50 values were calculated using software routines in Prism (GraphPad software).

**Q.** For CCc1cc(N2CCN(C)CC2)ccc1Nc1ncc(C(F)(F)F)c(NCCCNC(=O)C2CCC2)n1 [Example 1, N-(3-((2-((2-ethyl-4-(4-methylpiperazin-1-yl)phenyl)amino)-5-(trifluoromethyl)pyrimidin-4-yl)amino)propyl)cyclobutanecarboxamide], which IC50 [1] is on record?
**A.** 10 to 100 nM

**Q.** What about the IC50 (ULK1 kinase [2]) of the same molecule?
**A.** 1 to 25 nM

**Q.** What about the IC50 (ULK2 kinase) of the same molecule?
**A.** 25 to 100 nM

**Q.** What about the IC50 [3] of the same molecule?
**A.** 100 to 300 nM

**Q.** For CC(C)Oc1cc(N2CCN(C)CC2)ccc1Nc1ncc(Cl)c(NCCCNC(=O)C2CCC2)n1 [Example 10], which IC50 (ULK1 kinase [4]) is on record?
**A.** 500 to 20000 nM

**Q.** What about the IC50 (ULK2 kinase) of the same molecule?
**A.** 500 to 20000 nM

**Q.** What about the IC50 (LRRK2 kinase) of the same molecule?
**A.** 100 to 300 nM

**Q.** Which IC50 (ULK1 kinase [4]) does the source give for Cc1nn(C(C)(C)C#N)cc1Nc1ncc(C(F)(F)F)c(NCCCNC(=O)C2CCC2)n1 [Example 30, N-(3-((2-((1-(2-cyanopropan-2-yl)-3-methyl-1H-pyrazol-4-yl)amino)-5-(trifluoromethyl)pyrimidin-4-yl)amino)propyl)cyclobutanecarboxamide] here?
**A.** 100 to 500 nM

**Q.** What about the IC50 (ULK2 kinase) of the same molecule?
**A.** 500 to 20000 nM

**Q.** And the IC50 (LRRK2 kinase)?
**A.** 1 to 100 nM

**Q.** For CCc1cc(N2CCN(C)CC2)ccc1Nc1ncc(Br)c(NCCCNC(=O)C2CCC2)n1 [Example 7], which IC50 (ULK1 kinase [4]) is on record?
**A.** 25 to 100 nM

**Q.** And the IC50 (ULK2 kinase)?
**A.** 100 to 500 nM

**Q.** What about the IC50 (LRRK2 kinase) of the same molecule?
**A.** 100 to 300 nM

**Q.** Cc1nn(C(C)(C)C(N)=O)cc1Nc1ncc(C(F)(F)F)c(NCCCNC(=O)C2CCC2)n1 [Example 26, N-(3-((2-((1-(1-amino-2-methyl-1-oxopropan-2-yl)-3-methyl-1H-pyrazol-4-yl)amino)-5-(trifluoromethyl)pyrimidin-4-yl)amino)propyl)cyclobutanecarboxamide] was tested. Which IC50 (ULK1 kinase [4]) did it give?
**A.** 500 to 20000 nM

**Q.** What about the IC50 (ULK2 kinase) of the same molecule?
**A.** 500 to 20000 nM

**Q.** And the IC50 (LRRK2 kinase)?
**A.** 1 to 100 nM

**Q.** What does the source list for CCc1cc(N2CCN(C)CC2)ccc1Nc1ncc(C2CC2)c(NCCCNC(=O)C2CCC2)n1 [Example 19]?
**A.** IC50 (ULK1 kinase [4]): 500 to 20000 nM; IC50 (ULK2 kinase): 500 to 20000 nM; IC50 (LRRK2 kinase): 600 to 20000 nM

**Q.** Which IC50 (ULK1 kinase [4]) does the source give for CN1CCN(c2ccc(Nc3ncc(Br)c(NCCCNC(=O)C4CCC4)n3)c(C3CC3)c2)CC1 [Example 9] here?
**A.** 25 to 100 nM

**Q.** And the IC50 (ULK2 kinase)?
**A.** 100 to 500 nM

**Q.** What about the IC50 (LRRK2 kinase) of the same molecule?
**A.** 100 to 300 nM
